Experiments:
Type in all cases: in vivo, mouse
[1] = system: MC38 colon carcinoma tumors; assay: MC38 tumor growth after local ablative IR and/or RA
[2] = system: Renca (a renal cancer tumor model); assay: Renca tumor growth after IR and RA; conditions: IR and RA combination compared with single treatments
Experimental: 1×10^6 MC38, B16/F1, Renca or CT26 cells were subcutaneously implanted into flanks of mice. Tumors were irradiated using a Phillips IR250 orthovoltage X-ray generator (Phillips, Amsterdam, the Netherlands) operating at 250 kV 15 mA. Subcutaneous local tumors were irradiated by shielding bodies with a cylindrical lead cover with only flank tumors exposed for radiation. ATRA (400 μg/mice/day) was administered by oral gavage for 10 days. For the two-tumor model, 1×10^6 and 0.7×10^6 MC38 cells were subcutaneously implanted into the right and left flank of mice respectively. […] Tumors were measured along two diameters (length and width) and depth twice weekly and volumes were calculated as length×width×depth/2. For CD8 and CD4 T cell depletion experiments, 200 μg antibodies were injected i.p. on day 0, 2, 5 and 8 after radiation. Anti-CD11b antibody was injected i.p. every two days starting 1 day before radiation. Anti-PD-L1 antibody was administered i.p. on day 0, 3, and 7 after radiation at 200 μg/mouse. Anti-IFN-γ was administered i.p. at 500 μg/mouse every 7 days. Anti-NK1.1 antibody was administered via i.p. at 25 μg/mouse every 3 days for 3 doses. Anti-GM-CSF antibody was given by i.p. injection at 250 μg/mouse every 2 days. FTY720 was delivered via gavage at 20 μg per dose every day for 7 days. […]

LLC cells = assay: Tumor re-challenge of cured mice with LLC cells; conditions: mice cured by IR+RA vs naive mice, 1×10^6 LLC cells
Experimental: 1×10^6 MC38, B16/F1, Renca or CT26 cells were subcutaneously implanted into flanks of mice. Tumors were irradiated using a Phillips IR250 orthovoltage X-ray generator (Phillips, Amsterdam, the Netherlands) operating at 250 kV 15 mA. Subcutaneous local tumors were irradiated by shielding bodies with a cylindrical lead cover with only flank tumors exposed for radiation. ATRA (400 μg/mice/day) was administered by oral gavage for 10 days. For the two-tumor model, 1×10^6 and 0.7×10^6 MC38 cells were subcutaneously implanted into the right and left flank of mice respectively. For the tumor re-challenge assay, both the cured mice and the naive mice were re-challenged with 5×10^6 MC38 or 1×10^6 LLC cells respectively. Tumors were measured along two diameters (length and width) and depth twice weekly and volumes were calculated as length×width×depth/2. For CD8 and CD4 T cell depletion experiments, 200 μg antibodies were injected i.p. on day 0, 2, 5 and 8 after radiation. Anti-CD11b antibody was injected i.p. every two days starting 1 day before radiation. Anti-PD-L1 antibody was administered i.p. on day 0, 3, and 7 after radiation at 200 μg/mouse. Anti-IFN-γ was administered i.p. at 500 μg/mouse every 7 days. Anti-NK1.1 antibody was administered via i.p. at 25 μg/mouse every 3 days for 3 doses. Anti-GM-CSF antibody was given by i.p. injection at 250 μg/mouse every 2 days. […]

[3] = system: chemokines and cytokines in tumors; assay: Multiplex cytokine/chemokine assay of tumor homogenates
Experimental: Whole tumors were excised at indicated time point post treatment. Tumors were weighed and homogenized in PBS with the presence of protease inhibitor cocktails at a ratio of 1 ml per gram of tissue. 25 μl of supernatants were subjected to a bead-based cytokine and chemokine assay (a mouse inflammation panel and chemokine panel sold under the tradename LEGENDPLEX™ (BioLegend, San Diego, California, United States of America). The assays were analyzed using a LSRII flow cytometer and software sold under the tradename LEGENDPLEX™ (both from BioLegend, San Diego, California, United States of America). IFN-γ was measured using IFN-γ flex CBA set (BD Biosciences, Franklin Lakes, New Jersey, United States of America). TNF-α concentration was measured using ELISA kit from R&D Systems (MTA00B; Minneapolis, Minnesota, United States of America). For nitrite assay, equal weight of tumors were cut into pieces and cultured in DMEM medium for 2 hours. The production of NO in the supernatants was measured indirectly by measuring the concentration of nitrite by using the Griess reagent nitrite measurement kit (Cell Signaling Technology, Danvers, Massachusetts, United States of America; #13547).
To determine whether RA has direct cytotoxic and/or radiosensitizing effects on tumor cells, MC38 cells were cultured with RA (0 nM to 2000 nM) after IR (0 Gy to 15 Gy) for three days. […] Since both IR and RA regulate immune responses, studies were conducted to examine how the combination treatment changes the tumor immune environment. Using a multiplex assay, the level of chemokines and cytokines in tumors three days after treatment was determined.

[4] = system: MC38 cell antigen-specific CD8+ T cells; assay: ELISPOT assay for IFN-γ-secreting CD8+ T cells
Experimental: MC38 cells were irradiated (40 Gy) and cultured overnight. CD8^+ T cells were isolated with EasySep mouse CD8+ positive selection kit (18953, STEMCELL Technologies, Vancouver, Canada) from draining lymph nodes of tumor-bearing mice on day 8 after treatment. 2×10^5 isolated CD8^+ T cells and 2×10^4 irradiated MC38 cells were plated onto 96-well PVDF-backed microplates coated with monoclonal antibody specific for mouse IFN-γ for 72 hours. Spots were developed by following the manufacturer's protocol (BD Biosciences, Franklin Lakes, New Jersey, United States of America).

[5] = IR+RA compared to other treatments

Q: Which results are given for `CC1=C(/C=C/C(C)=C/C=C/C(C)=C/C(=O)O)C(C)(C)CCC1` [RA, all-trans retinoic acid]?
A: MC38 tumor growth ([1]; IR (15 Gy) plus RA 400 μg/dose oral gavage, compared to untreated controls or any single treatment): synergistically inhibited tumor growth; complete tumor regression ([1]; IR (15 Gy) plus RA combination treatment): 17 of 19; tumor inhibition ([1]; IR with RA administered by i.p. injection): Significant tumor inhibition effects; tumor inhibition ([1]; IR with RA at a lower dose (200 μg/dose) by oral gavage): Significant tumor inhibition effects; tumor inhibition ([1]; IR with slow RA-releasing pellets implanted subcutaneously): Significant tumor inhibition effects; MC38 tumor growth ([1]; IR+RA, tumors grown in Rag1−/− mice, in contrast to wild type mice): did not respond; survival ([1]; RA alone): ≤ 50 days; MC38 tumor growth ([1]; RA alone, 400 μg/dose oral gavage): no significant effect; MC38 tumor growth ([1]; higher dose of RA alone (800 μg/mouse/dose) for 7 days): inhibited; Renca tumor growth [2]: significant benefit; growth of LLC after re-challenge (LLC cells): grew at the same rate; IFN-β level in tumors [3, 5]: significantly elevated; IFN-γ level in tumors [3, 5]: significantly elevated; IL-1 level in tumors [3, 5]: significantly elevated; IL-6 level in tumors [3, 5]: significantly elevated; increase of GM-CSF in whole tumor homogenates ([3]; IR+RA, three days after treatment): more than 5 fold; CXCL9 level in tumors ([3]; radiation and RA treatment): elevated; CXCL10 level in tumors ([3]; radiation and RA treatment): elevated; tumor antigen-specific CD8+ T cell priming in draining lymph nodes (IFN-γ ELISPOT) ([4]; IR+RA compared to control or single treatments): significantly enhanced; priming of CD8+ T cells from DLN of non-irradiated tumors (IFN-γ production) ([4]; primary tumor received IR+RA combination treatment): augmented
